# Test results taken from patent publication US20220062240A1, “METHODS OF TREATING CANCER USING A CLK INHIBITOR” (BioSplice Therapeutics, Inc., priority 2018, published 2022).
# Where two headings read alike, the source gives them in different places.
# Legend:
# [1] = tested on: colorectal cancer (6 cell lines); assay: CellTiter-Glo Viability Assay, colorectal cancer; type: cell-based; settings: Homo sapiens, inhibition of cancer cell proliferation
# MCF7 = assay: CellTiter-Glo Viability Assay, breast cancer; type: cell-based; settings: Homo sapiens, 96 h; MCF7, breast cancer, four days; read-out: EC50
# DU4475 = assay: CellTiter-Glo Viability Assay, breast cancer; type: cell-based; settings: Homo sapiens, DU-4475, 96 h; DU4475, breast cancer, four days; read-out: EC50
# CAMA1 = assay: CellTiter-Glo Viability Assay, breast cancer; type: cell-based; settings: Homo sapiens, CAMA-1, 96 h; CAMA1, breast cancer, four days; read-out: EC50
# HCC1599 = assay: CellTiter-Glo Viability Assay, breast cancer; type: cell-based; settings: Homo sapiens, 96 h; HCC1599, breast cancer, four days; read-out: EC50
# ZR-75-1 = assay: CellTiter-Glo Viability Assay, breast cancer; type: cell-based; settings: Homo sapiens, 96 h; ZR-75-1, breast cancer, four days; read-out: EC50
# BT-549 = assay: CellTiter-Glo Viability Assay, breast cancer; type: cell-based; settings: Homo sapiens, 96 h; BT-549, breast cancer, four days; read-out: EC50
# MDA-MB-231-Luc = assay: CellTiter-Glo Viability Assay, breast cancer; type: cell-based; settings: Homo sapiens, 96 h; MDA-MB-231-Luc, breast cancer, four days; read-out: EC50
# T47D = assay: CellTiter-Glo Viability Assay, breast cancer; type: cell-based; settings: Homo sapiens, 96 h, breast cancer, four days, read-out: EC50
# [2] = tested on: liver cancer (3 cell lines); assay: CellTiter-Glo Viability Assay, liver cancer; type: cell-based; settings: Homo sapiens, inhibition of cancer cell proliferation
# CLK3 = CLK3 (Homo sapiens, UniProt P49761); assay: CLK3 kinase activity assay (Z-lyte, Ser/Thr 18 peptide)
# all 50 cell lines = assay: CellTiter-Glo Viability Assay, average across all cell lines; type: cell-based; settings: Homo sapiens; across all 50 cell lines; read-out: average EC50 for inhibition of cancer cell proliferation
# Method in brief: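 Cancer cell lines of several tumour types plated at 300-3,000 cells/well and exposed to compound in duplicate for four days at 37° C, 5% CO2, with DMSO-treated controls. Viability read by CellTiter-Glo luminescence (ATP content); EC50 derived from dose-response curves.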
# CLK2 = target: T1, CLK2 (Homo sapiens, UniProt P49760); assay: CLK2 kinase activity assay (Z-lyte, Ser/Thr 6 peptide); type: biochemical; settings: recombinant CLK2 kinase, ATP 60 μM; read-out: EC50
# T1 construct: purchased Thermo Fisher (Life Technologies), Z'-LYTE Kinase Assay Kits
# Protocol: All reactions were performed in duplicate.
# [3] = tested on: prostate cancer (5 cell lines); assay: CellTiter-Glo Viability Assay, prostate cancer; type: cell-based; settings: Homo sapiens
# [4] = tested on: pancreatic cancer (8 cell lines); assay: CellTiter-Glo Viability Assay, pancreatic cancer; type: cell-based; settings: Homo sapiens, inhibition of cancer cell proliferation
# [5] = tested on: haematopoietic & lymphoid tumors (13 cell lines); assay: CellTiter-Glo Viability Assay, haematopoietic & lymphoid tumors; type: cell-based; settings: Homo sapiens, inhibition of cancer cell proliferation
# [6] = tested on: lung cancer (4 cell lines); assay: CellTiter-Glo Viability Assay, lung cancer; type: cell-based; settings: Homo sapiens, inhibition of cancer cell proliferation
# [7] = tested on: ovarian cancer (4 cell lines); assay: CellTiter-Glo Viability Assay, ovarian cancer; type: cell-based; settings: Homo sapiens, inhibition of cancer cell proliferation
# [8] = HCT-116, HCT116 cell line, read-out: Colorectal cancer, EC50 (μM) HCT116
# [9] = HT-29, HT29 cell line, read-out: Colorectal cancer, EC50 (μM) HT29
# [10] = SW-620, SW620 cell line, read-out: Colorectal cancer, EC50 (μM) SW620
# [11] = DLD-1 cell line, read-out: Colorectal cancer, EC50 (μM) DLD-1
# [12] = SW48 cell line, read-out: Colorectal cancer, EC50 (μM) SW48
# [13] = SW480 cell line, read-out: Colorectal cancer, EC50 (μM) SW480
# [14] = SNU-398, SNU398 cell line, read-out: Liver cancer, EC50 SNU398
# [15] = HEPG2 cell line, read-out: Liver cancer, EC50 HEPG2
# [16] = PLC/PRF/5 cell line, read-out: Liver cancer, EC50 PLC/PRF/5
# [17] = DU-145, read-out: Prostate cancer EC50 Du-145
# [18] = PC-3, PC3 cell line, inhibition of cancer cell proliferation, read-out: Prostate cancer EC50 PC3
# [19] = 22Rv1 cell line, inhibition of cancer cell proliferation, read-out: Prostate cancer EC50 22Rv1
# [20] = LNCap clone FGC cell line, inhibition of cancer cell proliferation, read-out: Prostate cancer EC50 LNCap clone FGC
# [21] = VCaP (Sigma) cell line, inhibition of cancer cell proliferation, read-out: Prostate cancer EC50 VCaP (Sigma)
# [22] = BXPC-3, BxPC3 cell line, read-out: Pancreatic cancer, EC50 BxPC3
# [23] = CAPAN-1, Capan1 cell line, read-out: Pancreatic cancer, EC50 Capan1
# [24] = Capan-2, Capan2 cell line, read-out: Pancreatic cancer, EC50 Capan2
# [25] = MIA PaCa-2 cell line, read-out: Pancreatic cancer, EC50 MIA PaCa-2
# [26] = PANC 05.04 cell line, read-out: Pancreatic cancer, EC50 PANC 05.04
# [27] = PANC-1 cell line, read-out: Pancreatic cancer, EC50 PANC-1
# [28] = UPAFII cell line, read-out: Pancreatic cancer, EC50 UPAFII
# [29] = DND41, DND-41 cell line, read-out: Haematopoietic & Lymphoid tumors, EC50 (μM) DND-41
# [30] = MV4-11, MV-4-11 cell line, read-out: Haematopoietic & Lymphoid tumors, EC50 (μM) MV-4-11
# [31] = Rec1, REC-1 cell line, read-out: Haematopoietic & Lymphoid tumors, EC50 (μM) REC-1
# [32] = SU-DHL-4, SUDHL4 cell line, read-out: Haematopoietic & Lymphoid tumors, EC50 (μM) SUDHL4
# [33] = HL-60 cell line, read-out: Haematopoietic & Lymphoid tumors, EC50 (μM) HL-60
# [34] = JM1 cell line, read-out: Haematopoietic & Lymphoid tumors, EC50 (μM) JM1
# [35] = JURKAT, Clone E6-1 cell line, read-out: Haematopoietic & Lymphoid tumors, EC50 (μM) JURKAT, Clone E6-1
# [36] = JeKo-1 cell line, read-out: Haematopoietic & Lymphoid tumors, EC50 (μM) JeKo-1
# [37] = KASUMI-1 cell line, read-out: Haematopoietic & Lymphoid tumors, EC50 (μM) KASUMI-1
# [38] = Loucy cell line, read-out: Haematopoietic & Lymphoid tumors, EC50 (μM) Loucy
# [39] = MOLT-4 cell line, read-out: Haematopoietic & Lymphoid tumors, EC50 (μM) MOLT-4
# [40] = TF-1 cell line, read-out: Haematopoietic & Lymphoid tumors, EC50 (μM) TF-1
# [41] = TOLEDO cell line, read-out: Haematopoietic & Lymphoid tumors, EC50 (μM) TOLEDO
# [42] = A-427, A427 cell line, read-out: Lung cancer, EC50 (μM) A427
# [43] = HCC78, HCC-78 cell line, read-out: Lung cancer, EC50 (μM) HCC-78
# [44] = NCI-H460 cell line, read-out: Lung cancer, EC50 (μM) NCI-H460
# [45] = NCI-H522 cell line, read-out: Lung cancer, EC50 (μM) NCI-H522
# [46] = PA-1, PA1 cell line, read-out: Ovarian cancer, EC50 (μM) PA1
# [47] = TOV112D, TOV-112D cell line, read-out: Ovarian cancer, EC50 (μM) TOV-112D
# [48] = OV-90 cell line, read-out: Ovarian cancer, EC50 (μM) OV-90
# [49] = OVCAR-3 cell line, read-out: Ovarian cancer, EC50 (μM) OVCAR-3
# T1 sequence (P49760 whole entry): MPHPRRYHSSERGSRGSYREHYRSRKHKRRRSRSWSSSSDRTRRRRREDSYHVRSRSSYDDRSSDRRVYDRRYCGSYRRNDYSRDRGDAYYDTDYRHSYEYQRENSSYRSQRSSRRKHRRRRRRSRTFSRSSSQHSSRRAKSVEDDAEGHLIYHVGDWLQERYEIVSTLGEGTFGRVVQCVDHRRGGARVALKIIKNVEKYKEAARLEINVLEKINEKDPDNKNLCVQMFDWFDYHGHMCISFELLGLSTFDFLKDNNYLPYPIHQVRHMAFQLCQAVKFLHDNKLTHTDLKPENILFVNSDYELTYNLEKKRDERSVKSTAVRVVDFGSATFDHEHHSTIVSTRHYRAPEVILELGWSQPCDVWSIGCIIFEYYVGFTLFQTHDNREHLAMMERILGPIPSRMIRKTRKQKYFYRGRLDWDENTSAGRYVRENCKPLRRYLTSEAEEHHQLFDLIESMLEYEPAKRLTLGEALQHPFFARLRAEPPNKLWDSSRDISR
# Sequence of CLK3 (P49761 whole entry): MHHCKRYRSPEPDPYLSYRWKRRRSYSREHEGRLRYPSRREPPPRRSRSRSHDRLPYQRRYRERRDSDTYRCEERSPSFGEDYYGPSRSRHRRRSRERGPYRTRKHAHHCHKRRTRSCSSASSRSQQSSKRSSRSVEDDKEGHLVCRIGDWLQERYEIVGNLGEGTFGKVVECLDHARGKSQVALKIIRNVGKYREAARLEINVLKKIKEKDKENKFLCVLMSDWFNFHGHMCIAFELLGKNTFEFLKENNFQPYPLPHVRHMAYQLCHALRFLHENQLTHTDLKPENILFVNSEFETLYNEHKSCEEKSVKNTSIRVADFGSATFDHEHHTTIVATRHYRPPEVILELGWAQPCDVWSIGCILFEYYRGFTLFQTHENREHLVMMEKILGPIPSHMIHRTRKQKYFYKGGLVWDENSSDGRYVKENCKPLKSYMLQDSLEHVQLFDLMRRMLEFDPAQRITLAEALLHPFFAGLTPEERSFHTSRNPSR
smiles,measurement,setting,value
[2H]c1c([2H])c([2H])c(/C=C/C(=O)Nc2cc3cc(-c4cncn4C)ccc3cn2)c([2H])c1[2H] [Compound 81],EC50,[1]; [8],0.147 µM
same,EC50,[1]; [9],0.433 µM
same,EC50,[1]; [10],0.135 µM
same,EC50,[1]; [11],0.199 µM
same,EC50,[1]; [12],0.12 µM
same,EC50,[1]; [13],0.132 µM
same,EC50,MCF7,505 nM
same,EC50,DU4475,152 nM
same,EC50,CAMA1,429 nM
same,EC50,HCC1599,165 nM
same,EC50,ZR-75-1,441 nM
same,EC50,BT-549,273 nM
same,EC50,MDA-MB-231-Luc,338 nM
same,EC50,T47D,471 nM
same,EC50,[2]; [14],112 nM
same,EC50,[2]; [15],470 nM
same,EC50,[2]; [16],466 nM
same,EC50,CLK3,15.4 nM
same,EC50,all 50 cell lines,324 nM
same,EC50,CLK2,3.4 nM
same,EC50,[3]; [17],429 nM
same,EC50,[3]; [18],287 nM
same,EC50,[3]; [19],329 nM
same,EC50,[3]; [20],444 nM
same,EC50,[3]; [21],497 nM
same,EC50,[4]; [22],848 nM
same,EC50,[4]; [23],372 nM
same,EC50,[4]; [24],620 nM
same,EC50,[4]; [25],261 nM
same,EC50,[4]; [26],564 nM
same,EC50,[4]; [27],600 nM
same,EC50,[4]; [28],348 nM
same,EC50,[5]; [29],0.213 µM
same,EC50,[5]; [30],0.025 µM
same,EC50,[5]; [31],0.106 µM
same,EC50,[5]; [32],0.407 µM
same,EC50,[5]; [33],0.235 µM
same,EC50,[5]; [34],0.12 µM
same,EC50,[5]; [35],0.305 µM
same,EC50,[5]; [36],0.136 µM
same,EC50,[5]; [37],0.206 µM
same,EC50,[5]; [38],0.374 µM
same,EC50,[5]; [39],0.186 µM
same,EC50,[5]; [40],0.391 µM
same,EC50,[5]; [41],0.13 µM
same,EC50,[6]; [42],0.216 µM
same,EC50,[6]; [43],0.396 µM
same,EC50,[6]; [44],0.329 µM
same,EC50,[6]; [45],0.216 µM
same,EC50,[7]; [46],0.218 µM
same,EC50,[7]; [47],0.228 µM
same,EC50,[7]; [48],0.838 µM
same,EC50,[7]; [49],0.315 µM
Cc1ncc(-c2ccc3cnc(NC(=O)c4cnn(C5CCN(C)CC5)c4)cc3c2)o1 [Compound 83],EC50,[1]; [8],0.102 µM
same,EC50,[1]; [9],0.182 µM
same,EC50,[1]; [10],0.065 µM
same,EC50,[1]; [11],0.145 µM
same,EC50,[1]; [12],0.058 µM
same,EC50,[1]; [13],0.117 µM
same,EC50,MCF7,491 nM
same,EC50,DU4475,145 nM
same,EC50,CAMA1,304 nM
same,EC50,HCC1599,99 nM
same,EC50,ZR-75-1,220 nM
same,EC50,BT-549,176 nM
same,EC50,MDA-MB-231-Luc,193 nM
same,EC50,T47D,253 nM
same,EC50,[2]; [14],50 nM
same,EC50,[2]; [15],107 nM
same,EC50,[2]; [16],314 nM
same,EC50,CLK3,13.6 nM
same,EC50,all 50 cell lines,182 nM
same,EC50,CLK2,2.9 nM
same,EC50,[3]; [17],199 nM
same,EC50,[3]; [18],195 nM
same,EC50,[3]; [19],140 nM
same,EC50,[3]; [20],330 nM
same,EC50,[3]; [21],255 nM
same,EC50,[4]; [22],254 nM
same,EC50,[4]; [23],198 nM
same,EC50,[4]; [24],321 nM
same,EC50,[4]; [25],91 nM
same,EC50,[4]; [26],169 nM
same,EC50,[4]; [27],291 nM
same,EC50,[4]; [28],140 nM
same,EC50,[5]; [29],0.185 µM
same,EC50,[5]; [30],0.033 µM
same,EC50,[5]; [31],0.065 µM
same,EC50,[5]; [32],0.151 µM
same,EC50,[5]; [33],0.409 µM
same,EC50,[5]; [34],0.064 µM
same,EC50,[5]; [35],0.353 µM
same,EC50,[5]; [36],0.064 µM
same,EC50,[5]; [37],0.129 µM
same,EC50,[5]; [38],0.135 µM
same,EC50,[5]; [39],0.196 µM
same,EC50,[5]; [40],0.256 µM
same,EC50,[5]; [41],0.087 µM
same,EC50,[6]; [42],0.275 µM
same,EC50,[6]; [43],0.173 µM
same,EC50,[6]; [44],0.197 µM
same,EC50,[6]; [45],0.105 µM
same,EC50,[7]; [46],0.17 µM
same,EC50,[7]; [47],0.121 µM
same,EC50,[7]; [48],0.234 µM
same,EC50,[7]; [49],0.11 µM
